# Patent publication US10213418B2, “Therapeutic uses of berberine formulations” (TWi Biotechnology, Inc., priority 2013, dated 2019)
# Like-named read-outs stand apart in the source and are kept apart here.
# Legend:
# [1] = patients on therapy; cited from earlier work
# Solubility = assay type: physicochemical
# [2] = Partition coefficient in an octanol-water system; assay type: physicochemical; conditions: berberine alone
compound,measurement,setting,value
Nc1cc(C(F)(F)F)c(-c2cc(N3CCOCC3)nc(N3CCOCC3)n2)cn1 [BKM-120],maculopapular rash described,[1],37 % of patients
NC1(c2ccc(-c3nc4ccn5c(=O)[nH]nc5c4cc3-c3ccccc3)cc2)CCC1 [MK2206],maculopapular rash described,[1],52 % of patients
CN(C)C/C=C/C(=O)Nc1cc2c(Nc3ccc(F)c(Cl)c3)ncnc2cc1O[C@H]1CCOC1 [afatinib],papulopustular rash reported,[1],90 % of patients
"COc1ccc2cc3[n+](cc2c1OC)CCc1cc2c(cc1-3)OCO2 [berberine, 5,6-dihydro-9,10-dimethoxybenzo(g)-1,3-benzodioxolo (5,6-a) quinolizinium]",solubility,Solubility; aqueous berberine solubility,1570 µg/mL
same,solubility,"Solubility; medium containing SDS (sodium dodecyl sulfate), aqueous with cosolvent or surfactant or cyclodextrin, pH of between 4 and 7, read-out: berberine solubility in the presence of SDS",10 to 60 µg/mL
same,solubility,"Solubility; water, aqueous berberine solubility, read-out: solubility",1570 µg/mL
same,logP,[2],0.0294
Cn1cnc2c(F)c(Nc3ccc(Br)cc3Cl)c(C(=O)NOCCO)cc21 [selumetinib],papulopustular rash reported,[1],93 % of patients
ipilimumab: anti-CTLA-4 inhibitor,maculopapular rash described,[1],33 % of patients
nivolumab: anti-PD-1 inhibitor,maculopapular rash described,[1],26 % of patients
